The source made the active and inactive calls. No cut-off for these calls is given here.
How the values were obtained:
Helicobacter pylori = experiment: Increase in UDP-MurNAc-Ala level in Helicobacter pylori; type: functional, organism-based

Description for Enterococcus faecium: Activity of Enterococcus faecium MurI
Description for Escherichia coli: Activity of Escherichia coli MurI
Description for Staphylococcus aureus: Activity of Staphylococcus aureus MurI

Row | Compound | Km (Staphylococcus aureus) [µM] | kcat (Staphylococcus aureus) [s⁻¹] | Km (Enterococcus faecium) [µM] | Km (Escherichia coli) [µM] | kcat (Escherichia coli) [s⁻¹] | Activity (Helicobacter pylori)
1 | N[C@@H](CCC(=O)O)C(=O)O | 4600 | 8.5 | 1100 | 1200 | 12.2 | 
2 | CC(C)Cn1c(=O)n(C)c(=O)c2c(-c3ccncc3)n(Cc3cccc4ccccc34)nc21 |  |  |  |  |  | Active
3 | N[C@H](CCC(=O)O)C(=O)O | 140 | 0.567 | 240 | 2100 | 43.3 | 
